Measured values as given in patent publication EP0380359A1, “Biocidal compositions and treatments” (Albright & Wilson Limited, priority 1989, dated 1990).

System: infected cooling water
Experiment: Biocide test: bacterial counts in dosed samples of infected cooling water after 17 hours
Assay type: cell-based
Details: for bacterial counts per ml.: Table 2 (Example 6), control 10⁷
Method: Ethyl tris (hydroxymethyl) phosphonium chloride (Ethyl THPC) prepared according to the method of example 4, THPS, and a tetrakis (1 - hydroxy ethyl) phosphonium chloride (comparative example) were each dosed at four different concentrations to separate samples of an infected cooling water.
Bacterial counts per ml. of solution were estimated after 17 hours. The results are set out in Table 1 Table 1
Methyl tris (hydroxy methyl) phosphonium chloride (methyl THPC), THPS, and two other comparative examples, cyclohexyl tris (hydroxy methyl) phosphonium chloride and octyl tris (hydroxy methyl) phosphonium sulphate were each added at concentrations of 50, 200 and 1,000 ppm to separate samples of an infected cooling water.
Allyl tris (hydroxymethyl) phosphonium bromide (allyl THPB) prepared as described in Ex3 was compared with 2, 6-dichlorobenzyl tris (hydroxymethyl) phosphonium bromide and THPS in a biocide test as described in example 5. […]

[1] = Table 3 (Example 7), 100 ppm, test as in example 5
[2] = Table 3 (Example 7), 150 ppm, test as in example 5
[3] = Table 3 (Example 7), 200 ppm, test as in example 5
[4] = Example 5, summary in words of Table 1
[5] = Table 1 (Example 5), 150 ppm, after 17 hours, control 10⁶
[6] = Table 1 (Example 5), 200 ppm, after 17 hours, control 10⁶

Row | SMILES | bactericidal activity (Example 7, summary in words of Table 3) | Bacterial counts per ml. of solution [1] | Bacterial counts per ml. of solution [2] | Bacterial counts per ml. of solution [3] | bactericidal activity [4] | Bacterial counts per ml. of solution (Table 1 (Example 5), 100 ppm, after 17 hours, control 10⁶) | Bacterial counts per ml. of solution [5] | Bacterial counts per ml. of solution [6] | bacterial counts per ml. (200 ppm, after 17 hours) | bacterial counts per ml. (1000 ppm, after 17 hours)
1 | C=CC[P+](CO)(CO)CO.[Br-] [ALLYL THPB, Allyl tris (hydroxymethyl) phosphonium bromide] | performs at least as well as THPS | 0 per ml | 0 per ml | 0 per ml | – | – | – | – | – | –
2 | CC[P+](CO)(CO)CO.[Cl-] [ETHYL THPC, Ethyl tris (hydroxymethyl) phosphonium chloride] | – | – | – | – | more effective than THPS at lower concentrations | 0 per ml | 0 per ml | 0 per ml | – | –
3 | C[P+](CO)(CO)CO.[Cl-] [METHYL THPC, Methyl tris (hydroxy methyl) phosphonium chloride] | – | – | – | – | – | – | – | – | 0 per ml | 0 per ml
4 | OC[P+](CO)(CO)CO [THPS, reference compound] | – | 0 per ml | 0 per ml | 0 per ml | effective | – | 0 per ml | 0 per ml | 0 per ml | 0 per ml
